We go through 3 molecules from article PMC5760849 (2017).

Assay [1] deals with (G4C2)4 RNA (CD) (RNA, G4) GGGGCCGGGGCCGGGGCCGGGGCC
Kind of assay: CD, induced signal 350–550 nm. Conditions: Na+ (10 mM sodium cacodylate); pH 7.35; RNA 1 μM; compound 2 μM.

Assay [2] has as its system (G4C2)4 RNA G-Q, dual-labelled (RNA, G4) GGGGCCGGGGCCGGGGCCGGGGCC
Kind of assay: FRET melting. Conditions: Na+ (10 mM sodium cacodylate); pH 7.35; compound 2 μM; screening threshold, exact value only in figure.

Where only a bound is given, the exact number is not on record here.

Usually ΔTm stands for the shift of the melting midpoint relative to a reference. In the case of `N=C(N)c1ccc(-c2ccc(-c3ccc(-c4ccc(C(=N)N)cn4)s3)s2)nc1`, in assay [1], the binding entry is “yes”. Further, the ΔTm in assay [2] was above 13 °C.

`N=C(N)c1ccc(-c2ccc(-c3ccc(-c4ccc(C(=N)N)cn4)o3)o2)nc1`: the binding result in assay [1] is “yes”. The ΔTm in assay [2] was above 13 °C.

Turning to `N=C(N)c1ccc(-c2ccc(-c3ccc(-c4ccc(C(=N)N)cn4)[se]3)[se]2)nc1`, the binding result in assay [1] is reported as “yes”. For the same molecule, in assay [2], the ΔTm is above 13 °C.
